Test results: patent US20230322788A1, “IMIDAZOTRIAZINE AND PYRROLOPYRIMIDINE DERIVATIVES AS KRAS G12C INHIBITORS” (BeiGene, Ltd., priority 2020, published 2023)

The molecules below were run against KRAS (aa 1-169) G12C, C51S, C80L, C118S (Homo sapiens (Human), UniProt P01116, C118S/C51S/C80L/G12C) (assay: KRAS G12C SOS1-mediated nucleotide exchange / cRaf RBD binding FRET assay (Biochemical Functional Assay)). Settings: GDP-loaded KRAS G12C pre-incubated with compound at 24° C. for 3 hrs; SOS1, GTPγS, GST-cRaf RBD; inhibition of nucleotide exchange.
Chain of KRAS (aa 1-169) G12C, C51S, C80L, C118S (P01116 other isoform, or with tags, fused parts or gaps G12C/C51S/C80L/C118S): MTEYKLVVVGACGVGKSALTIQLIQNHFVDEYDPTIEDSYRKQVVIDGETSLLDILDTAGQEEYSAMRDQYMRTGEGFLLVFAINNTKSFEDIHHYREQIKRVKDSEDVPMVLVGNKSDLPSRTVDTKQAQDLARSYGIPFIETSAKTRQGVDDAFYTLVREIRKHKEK
Method: The KRAS ([…]) G12C, C51S, C80L, C118S with a His-tag was expressed, purified and loaded with GDP in house. All protein and substrate solutions were prepared in assay buffer containing 25 mM HEPES pH7.5, 10 mM MgCl2, and 0.01% Triton X-100. Purified GDP-loaded KRAS (aa 1-169) G12C, C51S, C80L, C118S protein was pre-incubated with a serially diluted compound at 24° C. for 3 hrs. Purified SOS1 (aa 564-1049) protein, GTPYS (Sigma) and GST-cRaf RBD (aa 1-149) were then added to each well and incubated at 24° C. for additional 3 hrs. […] Following the incubation, Mab Anti-6HIS-Tb cryptate (Cisbio) and Mab Anti GST-XL665 (Cisbio) were added and further incubated at 24° C. for 3 hrs. The binding interaction between active GTPγS KRAS G12C and GST-cRaf RBD brings the Tb and XL665 into close proximity enabling an increased FRET signal (Ex337 nm, Em665 nm/620 nm). The inhibition percentage of nucleotide exchange reaction in presence of increasing concentrations of compounds was calculated based on the ratio of fluorescence at 665 nm to that at 620 nm detected on a BMG PHERAstar FSX instrument. The IC50 value of each compound was calculated from fitting the data to the four-parameter logistic model by Dotmatics.
For `C=CC(=O)N1CCN(c2nc(OC[C@@H]3CCCN3C)nn3c(Cc4cccc5c4OCC5)cnc23)C[C@@H]1CC#N` [Compound A13, 2-((S)-1-acryloyl-4-(7-((2,3-dihydrobenzofuran-7-yl)methyl)-2-(((S)-1-methylpyrrolidin-2-yl)methoxy)imidazo[2,1-f][1,2,4]triazin-4-yl)piperazin-2-yl)acetonitrile], the IC50 was 0.101 µM. Molecule `C=CC(=O)N1CCN(c2nc(OC[C@@H]3CCCN3C)nc3c(Cc4c(C(F)(F)F)ccc5[nH]ncc45)c[nH]c23)C[C@@H]1CC#N` [Compound B5, 2-((S)-1-acryloyl-4-(2-(((S)-1-methylpyrrolidin-2-yl)methoxy)-7-((5-(trifluoromethyl)-1H-indazol-4-yl)methyl)-5H-pyrrolo[3,2-d]pyrimidin-4-yl)piperazin-2-yl)acetonitrile] has an IC50 of 0.0641 µM. `C=CC(=O)N1CCN(c2nc(OC[C@@H]3CCCN3C)nc3c(Cc4cc(O)cc5ccccc45)cn(C)c23)C[C@@H]1CC#N` [Compound B1, 2-((S)-1-acryloyl-4-(7-((3-hydroxynaphthalen-1-yl)methyl)-5-methyl-2-(((S)-1-methylpyrrolidin-2-yl)methoxy)-5H-pyrrolo[3,2-d]pyrimidin-4-yl)piperazin-2-yl)acetonitrile] showed an IC50 of 0.0062 µM. `C=CC(=O)N1CCN(c2nc(OC[C@@H]3CCCN3C)nn3c(Cc4cccc5ccccc45)cnc23)C[C@@H]1CC#N` [Compound A4, 2-((S)-1-acryloyl-4-(2-(((S)-1-methylpyrrolidin-2-yl)methoxy)-7-(naphthalen-1-ylmethyl)imidazo[2,1-f][1,2,4]triazin-4-yl)piperazin-2-yl)acetonitrile] showed an IC50 of 0.0467 µM. `C=CC(=O)N1CCN(c2nc(OC[C@@H]3CCCN3C)nn3c(Cc4ccccc4Cl)cnc23)C[C@@H]1CC#N` [Compound A12, 2-((S)-1-acryloyl-4-(7-(2-chlorobenzyl)-2-(((S)-1-methylpyrrolidin-2-yl)methoxy)imidazo[2,1-f][1,2,4]triazin-4-yl)piperazin-2-yl)acetonitrile] was tested, and the IC50 was 0.217 µM. For `C=CC(=O)N1CCN(c2nc(OC[C@@H]3CCCN3C)nn3c(Cc4ccc(O)c5ccccc45)cnc23)C[C@@H]1CC#N` [Compound A19, 2-((S)-1-acryloyl-4-(7-((4-hydroxynaphthalen-1-yl)methyl)-2-(((S)-1-methylpyrrolidin-2-yl)methoxy)imidazo[2,1-f][1,2,4]triazin-4-yl)piperazin-2-yl)acetonitrile], the IC50 was 0.0096 µM. In the case of `C=CC(=O)N1CCN(c2nc(OC[C@@H]3CCCN3C)nn3c(Cc4ccc(OC)c5ccccc45)cnc23)C[C@@H]1CC#N` [Compound A10, 2-((S)-1-acryloyl-4-(7-((4-methoxynaphthalen-1-yl)methyl)-2-(((S)-1-methylpyrrolidin-2-yl)methoxy)imidazo[2,1-f][1,2,4]triazin-4-yl)piperazin-2-yl)acetonitrile], the IC50 is reported as 0.187 µM. Work on `C=CC(=O)N1CCN(c2nc(OC[C@@H]3CCCN3C)nn3c(Cc4c(O)ccc5ccccc45)cnc23)C[C@@H]1CC#N` [Compound A21, 2-((S)-1-acryloyl-4-(7-((2-hydroxynaphthalen-1-yl)methyl)-2-(((S)-1-methylpyrrolidin-2-yl)methoxy)imidazo[2,1-f][1,2,4]triazin-4-yl)piperazin-2-yl)acetonitrile] yielded an IC50 of 0.0208 µM. For `C=CC(=O)N1CCN(c2nc(OC[C@@H]3CCCN3C)nn3c(C4CCc5ccccc54)cnc23)C[C@@H]1CC#N` (stereo partly drawn) [Compound A22, 2-((2S)-1-acryloyl-4-(7-(2,3-dihydro-1H-inden-1-yl)-2-(((S)-1-methylpyrrolidin-2-yl)methoxy)imidazo[2,1-f][1,2,4]triazin-4-yl)piperazin-2-yl)acetonitrile], the IC50 was 0.201 µM. Molecule `C=CC(=O)N1CCN(c2nc(OC[C@@H]3CCCN3C)nn3c(Cc4c(F)cccc4Cl)cnc23)C[C@@H]1CC#N` [Compound A11, 2-((S)-1-acryloyl-4-(7-(2-chloro-6-fluorobenzyl)-2-(((S)-1-methylpyrrolidin-2-yl)methoxy)imidazo[2,1-f][1,2,4]triazin-4-yl)piperazin-2-yl)acetonitrile] has an IC50 of 0.215 µM. `C=CC(=O)N1CCN(c2nc(OC[C@@H]3CCCN3C)nn3c(Cc4cccc5ccccc45)cnc23)CC1` [Compound A1, (S)-1-(4-(2-((1-methylpyrrolidin-2-yl)methoxy)-7-(naphthalen-1-ylmethyl)imidazo[2,1-f][1,2,4]triazin-4-yl)piperazin-1-yl)prop-2-en-1-one] gave an IC50 of 3.28 µM. Work on `C=CC(=O)N1CCN(c2nc(OC[C@@H]3CCCN3C)nc3c(Cc4cc(O)cc5ccccc45)cn(CC)c23)C[C@@H]1CC#N` [Compound B2, 2-((S)-1-acryloyl-4-(5-ethyl-7-((3-hydroxynaphthalen-1-yl)methyl)-2-(((S)-1-methylpyrrolidin-2-yl)methoxy)-5H-pyrrolo[3,2-d]pyrimidin-4-yl)piperazin-2-yl)acetonitrile] yielded an IC50 of 0.013 µM. `C=CC(=O)N1CCN(c2nc(OC[C@@H]3CCCN3C)nn3c(Cc4ccccc4C(F)(F)F)cnc23)C[C@@H]1CC#N` [Compound A18, 2-((S)-1-acryloyl-4-(2-(((S)-1-methylpyrrolidin-2-yl)methoxy)-7-(2-(trifluoromethyl)benzyl)imidazo[2,1-f][1,2,4]triazin-4-yl)piperazin-2-yl)acetonitrile] showed an IC50 of 0.235 µM. In the case of `C=CC(=O)N1CCN(c2nc(OC[C@@H]3CCCN3C)nn3c(Cc4cccc5cccc(Cl)c45)cnc23)C[C@@H]1CC#N` [Compound A6, 2-((S)-1-acryloyl-4-(7-((8-chloronaphthalen-1-yl)methyl)-2-(((S)-1-methylpyrrolidin-2-yl)methoxy)imidazo[2,1-f][1,2,4]triazin-4-yl)piperazin-2-yl)acetonitrile], the IC50 is reported as 0.1 µM. Work on `C=CC(=O)N1CCN(c2nc(OC[C@@H]3CCCN3C)nn3c(Cc4cccc5c4CCO5)cnc23)C[C@@H]1CC#N` [Compound A9, 2-((S)-1-acryloyl-4-(7-((2,3-dihydrobenzofuran-4-yl)methyl)-2-(((S)-1-methylpyrrolidin-2-yl)methoxy)imidazo[2,1-f][1,2,4]triazin-4-yl)piperazin-2-yl)acetonitrile] yielded an IC50 of 1.06 µM. Molecule `C=CC(=O)N1CCN(c2nc(OC[C@@H]3C[C@@H](F)CN3C)nc3c(Cc4cc(O)cc5ccccc45)cn(C)c23)C[C@@H]1CC#N` [Compound B3, 2-((S)-1-acryloyl-4-(2-(((2S,4R)-4-fluoro-1-methylpyrrolidin-2-yl)methoxy)-7-((3-hydroxynaphthalen-1-yl)methyl)-5-methyl-5H-pyrrolo[3,2-d]pyrimidin-4-yl)piperazin-2-yl)acetonitrile] has an IC50 of 0.0203 µM. With `C=CC(=O)N1CCN(c2nc(OC[C@@H]3CCCN3C)nn3c(Cc4cccc5[nH]ncc45)cnc23)C[C@@H]1CC#N` [Compound A15, 2-((S)-4-(7-((1H-indazol-4-yl)methyl)-2-(((S)-1-methylpyrrolidin-2-yl)methoxy)imidazo[2,1-f][1,2,4]triazin-4-yl)-1-acryloylpiperazin-2-yl)acetonitrile] the IC50 was 1.18 µM. In the case of `C=CC(=O)N1CCN(c2nc(OC[C@@H]3CCCN3C)nn3c(Cc4cccc5cccc(C)c45)cnc23)C[C@@H]1CC#N` [Compound A7, 2-((S)-1-acryloyl-4-(7-((8-methylnaphthalen-1-yl)methyl)-2-(((S)-1-methylpyrrolidin-2-yl)methoxy)imidazo[2,1-f][1,2,4]triazin-4-yl)piperazin-2-yl)acetonitrile], the IC50 is reported as 0.0478 µM. With `C=CC(=O)N1CCN(c2nc(OC[C@@H]3CCCN3C)nn3c(Cc4cc(O)cc5ccccc45)cnc23)C[C@@H]1CC#N` [Compound A5, 2-((S)-1-acryloyl-4-(7-((3-hydroxynaphthalen-1-yl)methyl)-2-(((S)-1-methylpyrrolidin-2-yl)methoxy)imidazo[2,1-f][1,2,4]triazin-4-yl)piperazin-2-yl)acetonitrile] the IC50 was 0.029 µM. Molecule `C=CC(=O)N1CCN(c2nc(OC[C@@H]3CCCN3C)nn3c(Cc4ccc5ccccc5c4)cnc23)C[C@@H]1CC#N` [Compound A8, 2-((S)-1-acryloyl-4-(2-(((S)-1-methylpyrrolidin-2-yl)methoxy)-7-(naphthalen-2-ylmethyl)imidazo[2,1-f][1,2,4]triazin-4-yl)piperazin-2-yl)acetonitrile] has an IC50 of 7.7 µM.

Same assay, conditions: same assay; the cell prints uM although the column head says nmol
`C=CC(=O)N1CCN(c2nc(OC[C@@H]3CCCN3C)nn3c(-c4cc(OC)cc5ccccc45)cnc23)C[C@@H]1CC#N` [Compound A3, 2-((S)-1-acryloyl-4-(7-(3-methoxynaphthalen-1-yl)-2-(((S)-1-methylpyrrolidin-2-yl)methoxy)imidazo[2,1-f][1,2,4]triazin-4-yl)piperazin-2-yl)acetonitrile] was tested, and the IC50 was > 10 µM. For `C=CC(=O)N1CCN(c2nc(OC[C@@H]3CCCN3C)nn3c(Cc4cccc5[nH]ncc45)cnc23)C[C@@H]1CC(N)=O` [Compound A16, 2-((S)-4-(7-((1H-indazol-4-yl)methyl)-2-(((S)-1-methylpyrrolidin-2-yl)methoxy)imidazo[2,1-f][1,2,4]triazin-4-yl)-1-acryloylpiperazin-2-yl)acetamide], the IC50 was > 10 µM.
